# Laboratory results taken from patent US8952024B2, “Herbicidal pyrimidone derivatives” (E I du Pont de Nemours and Company, priority 2009, dated 2015).
# Experiments:
# Format in all cases: in vivo
# [1] = test system: ducksalad (Heteranthera limosa); assay: Test B flooded paddy test; details: for Plant response rating, Flood, Ducksalad: 250 g ai/ha, flooded paddy test, visual rating on 0 to 100 scale (0 no effect, 100 complete control) after 13 to 15 days; for Plant response rating, Ducksalad: Flood (flooded paddy test), 13 to 15 days; for Ducksalad plant response rating: Flood, 31 g ai/ha, scale 0 to 100 (0 no effect, 100 complete control)
# How it was run: (§1)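 Plants were grown to the 2-leaf stage, then pots were flooded to 3 cm above the soil and compounds were applied directly into the paddy water. That depth was held throughout. After 13 to 15 days in a greenhouse, injury was visually rated against controls on a 0–100 scale.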
# [2] = test system: barnyardgrass (Echinochloa crus-galli); assay: Test B flooded paddy test; details: for Plant response rating, Flood, Barnyardgrass: 250 g ai/ha, flooded paddy test, visual rating on 0 to 100 scale (0 no effect, 100 complete control) after 13 to 15 days; for Plant response rating, Barnyardgrass: Flood (flooded paddy test), 13 to 15 days; for Barnyardgrass plant response rating: Flood, 31 g ai/ha, scale 0 to 100 (0 no effect, 100 complete control)
# How it was run: as §1
# [3] = test system: umbrella sedge (Cyperus difformis); assay: Test B flooded paddy test; details: for Plant response rating, Flood, Sedge, Umbrella: 250 g ai/ha, flooded paddy test, visual rating on 0 to 100 scale (0 no effect, 100 complete control) after 13 to 15 days; for Plant response rating, Sedge, Umbrella: Flood (flooded paddy test), 13 to 15 days; for Sedge, Umbrella plant response rating: Flood, 31 g ai/ha, scale 0 to 100 (0 no effect, 100 complete control)
# How it was run: as §1
# [4] = test system: rice (Oryza sativa); assay: Test B flooded paddy test; details: for Plant response rating, Flood, Rice: 250 g ai/ha, flooded paddy test, visual rating on 0 to 100 scale (0 no effect, 100 complete control) after 13 to 15 days; for Plant response rating, Rice: Flood (flooded paddy test), 13 to 15 days; for Rice plant response rating: Flood, 31 g ai/ha, scale 0 to 100 (0 no effect, 100 complete control)
# How it was run: as §1
# [5] = test system: large crabgrass (Digitaria sanguinalis); assay: Test A pre-/postemergence plant response
# Source text: (§2) Seeds of barnyardgrass (Echinochloa crus-galli), large crabgrass (Digitaria sanguinalis), giant foxtail (Setaria faberii), morningglory (Ipomoea spp.), pigweed (Amaranthus retroflexus), velvetleaf (Abutilon theophrasti), wheat (Triticum aestivum) and corn (Zea mays) were planted into a blend of loam soil and sand and treated preemergence with a directed soil spray using test chemicals formulated in a non-phytotoxic solvent mixture which included a surfactant. At the same time these species were also treated with postemergence applications of test compounds formulated in the same manner.
# (§3) Plants ranged in height from two to ten cm and were in the one- to two-leaf stage for the postemergence treatment. Treated plants and untreated controls were maintained in a greenhouse for approximately ten days, after which time all treated plants were compared to untreated controls and visually evaluated for injury. Plant response ratings, summarized in Table A, are based on a 0 to 100 scale where 0 is no effect and 100 is complete control. A dash (-) response means no test result.
# [6] = test system: barnyardgrass (Echinochloa crus-galli); assay: Test A pre-/postemergence plant response
# Source text: as §2, §3
# [7] = test system: velvetleaf (Abutilon theophrasti); assay: Test A pre-/postemergence plant response
# Source text: as §2, §3
# [8] = test system: morningglory (Ipomoea spp.); assay: Test A pre-/postemergence plant response
# Source text: as §2, §3
# [9] = test system: wheat (Triticum aestivum); assay: Test A pre-/postemergence plant response
# Source text: as §2, §3
# [10] = test system: corn (Zea mays); assay: Test A pre-/postemergence plant response
# Source text: as §2, §3
# [11] = test system: pigweed (Amaranthus retroflexus); assay: Test A pre-/postemergence plant response
# Source text: as §2, §3
# [12] = test system: giant foxtail (Setaria faberii); assay: Test A pre-/postemergence plant response
# Source text: as §2, §3
# [13] = 62 g ai/ha, scale of 0 to 100 where 0 is no effect and 100 is complete control
# [14] = 125 g ai/ha, scale 0 to 100, 0 is no effect, 100 is complete control
# [15] = Postemergence, 125 g ai/ha, 0 to 100 scale where 0 is no effect and 100 is complete control
# [16] = Postemergence, 500 g ai/ha, 0 to 100 scale, 0 = no effect, 100 = complete control, approx. ten days
# [17] = Preemergence, 125 g ai/ha, 0 to 100 scale, 0 = no effect, 100 = complete control
# [18] = Preemergence, 500 g ai/ha, visual injury, 0 to 100 scale (0 no effect, 100 complete control), approx. ten days
smiles,measurement,setting,value
O=C1CCCC(O)=C1C(=O)c1cnc(-c2ccco2)n(-c2ccccc2)c1=O [Compound 76],"Plant response rating, Flood, Ducksalad",[1],0
same,"Plant response rating, Ducksalad",[1]; [13],0
same,"Plant response rating, Ducksalad",[1]; [14],0
same,Ducksalad plant response rating,[1],0
same,"Plant response rating, Flood, Barnyardgrass",[2],0
same,"Plant response rating, Barnyardgrass",[2]; [13],0
same,"Plant response rating, Barnyardgrass",[2]; [14],0
same,Barnyardgrass plant response rating,[2],0
same,"Plant response rating, Flood, Sedge, Umbrella",[3],0
same,"Plant response rating, Sedge, Umbrella",[3]; [13],0
same,"Plant response rating, Sedge, Umbrella",[3]; [14],0
same,"Sedge, Umbrella plant response rating",[3],0
same,"Plant response rating, Flood, Rice",[4],0
same,"Plant response rating, Rice",[4]; [13],0
same,"Plant response rating, Rice",[4]; [14],0
same,Rice plant response rating,[4],0
same,"Plant response rating, Crabgrass, Large",[5]; [15],70
same,"Plant response rating, Crabgrass, Large",[5]; [16],90
same,"Plant response rating, Crabgrass, Large",[5]; [17],50
same,"Plant response rating, Crabgrass, Large",[5]; [18],100
same,"Plant response rating, Barnyardgrass",[6]; [15],50
same,"Plant response rating, Barnyardgrass",[6]; [16],80
same,"Plant response rating, Barnyardgrass",[6]; [17],0
same,"Plant response rating, Barnyardgrass",[6]; [18],30
same,"Plant response rating, Velvetleaf",[7]; [15],100
same,"Plant response rating, Velvetleaf",[7]; [16],100
same,"Plant response rating, Velvetleaf",[7]; [17],20
same,"Plant response rating, Velvetleaf",[7]; [18],70
same,"Plant response rating, Morningglory",[8]; [15],90
same,"Plant response rating, Morningglory",[8]; [16],90
same,"Plant response rating, Morningglory",[8]; [17],0
same,"Plant response rating, Morningglory",[8]; [18],50
same,"Plant response rating, Wheat",[9]; [15],0
same,"Plant response rating, Wheat",[9]; [16],10
same,"Plant response rating, Wheat",[9]; [17],0
same,"Plant response rating, Wheat",[9]; [18],20
same,"Plant response rating, Corn",[10]; [15],0
same,"Plant response rating, Corn",[10]; [16],20
same,"Plant response rating, Corn",[10]; [17],0
same,"Plant response rating, Corn",[10]; [18],0
same,"Plant response rating, Pigweed",[11]; [15],90
same,"Plant response rating, Pigweed",[11]; [16],100
same,"Plant response rating, Pigweed",[11]; [17],50
same,"Plant response rating, Pigweed",[11]; [18],100
same,"Plant response rating, Foxtail, Giant",[12]; [15],40
same,"Plant response rating, Foxtail, Giant",[12]; [16],70
same,"Plant response rating, Foxtail, Giant",[12]; [17],0
same,"Plant response rating, Foxtail, Giant",[12]; [18],30
CCCCCc1ncc(C(=O)C2=C(O)CCCC2=O)c(=O)n1-c1ccccc1 [Compound 78],"Plant response rating, Flood, Ducksalad",[1],20
same,"Plant response rating, Ducksalad",[1]; [13],0
same,"Plant response rating, Flood, Barnyardgrass",[2],0
same,"Plant response rating, Barnyardgrass",[2]; [13],0
same,"Plant response rating, Flood, Sedge, Umbrella",[3],40
same,"Plant response rating, Sedge, Umbrella",[3]; [13],30
same,"Plant response rating, Flood, Rice",[4],20
same,"Plant response rating, Rice",[4]; [13],0
same,"Plant response rating, Crabgrass, Large",[5]; [15],30
same,"Plant response rating, Crabgrass, Large",[5]; [16],70
same,"Plant response rating, Crabgrass, Large",[5]; [17],10
same,"Plant response rating, Crabgrass, Large",[5]; [18],50
same,"Plant response rating, Barnyardgrass",[6]; [15],50
same,"Plant response rating, Barnyardgrass",[6]; [16],70
same,"Plant response rating, Barnyardgrass",[6]; [17],0
same,"Plant response rating, Barnyardgrass",[6]; [18],30
same,"Plant response rating, Velvetleaf",[7]; [15],100
same,"Plant response rating, Velvetleaf",[7]; [16],100
same,"Plant response rating, Velvetleaf",[7]; [17],20
same,"Plant response rating, Velvetleaf",[7]; [18],50
same,"Plant response rating, Morningglory",[8]; [15],70
same,"Plant response rating, Morningglory",[8]; [16],100
same,"Plant response rating, Morningglory",[8]; [17],0
same,"Plant response rating, Morningglory",[8]; [18],0
same,"Plant response rating, Wheat",[9]; [15],0
same,"Plant response rating, Wheat",[9]; [16],0
same,"Plant response rating, Wheat",[9]; [17],0
same,"Plant response rating, Wheat",[9]; [18],0
same,"Plant response rating, Corn",[10]; [15],0
same,"Plant response rating, Corn",[10]; [16],20
same,"Plant response rating, Corn",[10]; [17],0
same,"Plant response rating, Corn",[10]; [18],0
same,"Plant response rating, Pigweed",[11]; [15],100
same,"Plant response rating, Pigweed",[11]; [16],100
same,"Plant response rating, Pigweed",[11]; [17],50
same,"Plant response rating, Pigweed",[11]; [18],100
same,"Plant response rating, Foxtail, Giant",[12]; [15],20
same,"Plant response rating, Foxtail, Giant",[12]; [16],50
same,"Plant response rating, Foxtail, Giant",[12]; [17],0
same,"Plant response rating, Foxtail, Giant",[12]; [18],10
CCCc1ncc(C(=O)C2=C(O)CCCC2=O)c(=O)n1Cc1ccc(OC)c(OC)c1 [Compound 84],"Plant response rating, Flood, Ducksalad",[1],20
same,"Plant response rating, Ducksalad",[1]; [13],0
same,"Plant response rating, Ducksalad",[1]; [14],0
same,Ducksalad plant response rating,[1],0
same,"Plant response rating, Flood, Barnyardgrass",[2],0
same,"Plant response rating, Barnyardgrass",[2]; [13],0
same,"Plant response rating, Barnyardgrass",[2]; [14],0
same,Barnyardgrass plant response rating,[2],0
same,"Plant response rating, Flood, Sedge, Umbrella",[3],50
same,"Plant response rating, Sedge, Umbrella",[3]; [13],0
same,"Plant response rating, Sedge, Umbrella",[3]; [14],30
same,"Sedge, Umbrella plant response rating",[3],0
same,"Plant response rating, Flood, Rice",[4],0
same,"Plant response rating, Rice",[4]; [13],0
same,"Plant response rating, Rice",[4]; [14],0
same,Rice plant response rating,[4],0
same,"Plant response rating, Crabgrass, Large",[5]; [15],0
same,"Plant response rating, Crabgrass, Large",[5]; [16],10
same,"Plant response rating, Crabgrass, Large",[5]; [17],0
same,"Plant response rating, Crabgrass, Large",[5]; [18],0
same,"Plant response rating, Barnyardgrass",[6]; [15],0
same,"Plant response rating, Barnyardgrass",[6]; [16],10
same,"Plant response rating, Barnyardgrass",[6]; [17],0
same,"Plant response rating, Barnyardgrass",[6]; [18],0
same,"Plant response rating, Velvetleaf",[7]; [15],70
same,"Plant response rating, Velvetleaf",[7]; [16],100
same,"Plant response rating, Velvetleaf",[7]; [17],0
same,"Plant response rating, Velvetleaf",[7]; [18],40
same,"Plant response rating, Morningglory",[8]; [15],90
same,"Plant response rating, Morningglory",[8]; [16],90
same,"Plant response rating, Morningglory",[8]; [17],0
same,"Plant response rating, Morningglory",[8]; [18],10
same,"Plant response rating, Wheat",[9]; [15],0
same,"Plant response rating, Wheat",[9]; [16],0
same,"Plant response rating, Wheat",[9]; [17],0
same,"Plant response rating, Wheat",[9]; [18],0
same,"Plant response rating, Corn",[10]; [15],0
same,"Plant response rating, Corn",[10]; [16],20
same,"Plant response rating, Corn",[10]; [17],0
same,"Plant response rating, Corn",[10]; [18],0
same,"Plant response rating, Pigweed",[11]; [15],100
same,"Plant response rating, Pigweed",[11]; [16],100
same,"Plant response rating, Pigweed",[11]; [17],90
same,"Plant response rating, Pigweed",[11]; [18],100
same,"Plant response rating, Foxtail, Giant",[12]; [15],0
same,"Plant response rating, Foxtail, Giant",[12]; [16],0
same,"Plant response rating, Foxtail, Giant",[12]; [17],0
same,"Plant response rating, Foxtail, Giant",[12]; [18],0
